Measurements published in patent US10087427B2, “Glycosyltransferase gene and use thereof” (SUNTORY HOLDINGS LIMITED, priority 2014, dated 2018).

tested on: NmGT22 protein; test: Enzyme activity of purified His-tag NmGT22 protein on flavonoid substrates (HPLC); type: biochemical, Nemophila menziesii; details: NmGT22 protein solution, UDP-glucose, 2 mM substrate, same reaction conditions
Procedure: E. coli strain BL2 introduced with pET SUMO-NmGT22 described in Example 5 was cultured using the Overnight Express Auto-induction System 1 (Novagen Inc.) in accordance with the manufacturer's recommended protocol. The transformed E. coli were cultured in 8 ml of prepared culture broth at 37° C. until the OD600 value reached 0.5 (about 4 hours). This E. coli culture broth was added to 200 ml of a culture broth as pre-culture broth followed by final culturing overnight at 25° C.
After having been cultured overnight, the E. coli culture broth was centrifuged (1,000×g, 4° C., 10 minutes), the harvested bacterial cells were suspended in 20 ml of extract (composition: buffer solution (300 mM KCl, 50 mM KH2PO4, 5 mM imidazole) (pH 8.0), 10 μM amidinophenylmethanesulfonyl fluoride hydrochloride (APMSF)), and the E. coli were crushed by ultrasonic treatment followed by centrifuging (1,400×g, 4° C., 20 minutes) and recovering the supernatant. The supernatant was passed through a 0.45 μm filter and subjected to His-Tag purification using Profinia (Bio-Rad Corp.) in accordance with the manufacturer's recommended protocol. The resulting purified protein solution was centrifuged (7,500×g, 4° C., 15 minutes) using a centrifugal filter unit (Ultracel-10K, Amicon Ultra), and the concentrated protein solution was used as “NmGT-22 Protein Solution”. The Avanti HP-26XP centrifuge (rotor: JA-2, Beckman Coulter Inc.) was used for centrifugation.
A reaction solution prepared by mixing 10 μl of protein solution, 2 it of 50 mM UDP-glucose, 10 μl of 1 M Tris-HCl (pH 7.5) and 1 μl of 2 mM apigenin 4′-glucoside (dissolved in 50% aqueous acetonitrile solution containing 0.1% TFA) on ice and bringing to reaction volume of 100 μl with water was held for 20 minutes at 30° C. Subsequently, 100 μl of stop buffer (90% aqueous acetonitrile solution containing 0.1% TFA) were added to stop the reaction followed by analyzing the reaction solution by high-performance liquid chromatography (Prominence, Shimadzu Corp.). Flavone was detected at 330 nm using the Shimadzu PDA SPD-M10AVP for the detector. The Shim-Pack ODS column (150 mm×4.6 mm, Shimadzu Corp.) was used for the column. A liquid A (0.1% aqueous TFA solution) and a liquid B (90% aqueous methanol solution containing 0.1% TFA) were used for elution. Elution was carried out for 10 minutes at a linear concentration gradient from an 8:2 mixture of the two solutions to a 3:7 mixture of the two solutions followed by eluting for 6 minutes using a 3:7 mixture of the two solutions. The flow rate was 0.6 ml/min.

Compound | product synthesized by enzyme reaction
O=c1cc(-c2ccc(O[C@@H]3O[C@H](CO)[C@@H](O)[C@H](O)[C@H]3O)c(O)c2)oc2cc(O)cc(O)c12 [luteolin 4′-glucoside] | Luteolin 4′,7-diglucoside was synthesized

same assay, conditions: NmGT22 protein solution, UDP-glucose, 1 μl of 2 mM substrate in 100 μl, 20 minutes at 30° C.

Compound | reaction rate (percentage of transformed substrate)
O=c1cc(-c2ccc(O[C@@H]3O[C@H](CO)[C@@H](O)[C@H](O)[C@H]3O)cc2)oc2cc(O)cc(O)c12 [apigenin 4′-glucoside] | 100%
O=c1cc(-c2ccc(O)cc2)oc2cc(O[C@@H]3O[C@H](CO)[C@@H](O)[C@H](O)[C@H]3O)cc(O)c12 [apigenin 7-glucoside] | 2.69%
O=c1cc(-c2ccc(O)c(O)c2)oc2cc(O[C@@H]3O[C@H](CO)[C@@H](O)[C@H](O)[C@H]3O)cc(O)c12 [luteolin 7-glucoside] | 16.10%
O=c1cc(-c2ccc(O)c(O)c2)oc2cc(O)cc(O)c12 [luteolin, 3′,4′,5,7-tetrahydroxyflavone] | 99.07%
O=c1cc(-c2ccc(O)cc2)oc2cc(O)cc(O)c12 [apigenin, 4′,5,7-trihydroxyflavone] | 77.16%
